Measured values taken from patent publication US20030144263A1, “Oxazolidinone derivatives, process for their preparation and pharmaceutical compositions containing them” (Syngenta Limited, priority 1998, published 2003).
Values after ≈ are worked out from the molar mass of the structure shown. Like-named read-outs stand apart in the source and are kept apart here.

Tests used:
[1] = tested on: Staphylococcus aureus Oxford; experiment: MIC by agar-dilution, Staphylococcus aureus Oxford; format: cell-based; conditions: inoculum 10^4 CFU/spot, 37° C., 24 hours
Procedure: (§1) The following results were obtained on a standard in-vitro test system. The activity is described in terms of the minimum inhibitory concentration (MIC) determined by the agar-dilution technique with an inoculum size of 10^4 CFU/spot. Typically, compounds are active in the range 0.01 to 256 μg/ml.
(§2) Staphylococci were tested on agar, using an inoculum of 10^4 CFU/spot and an incubation temperature of 37° C. for 24 hours—standard test conditions for the expression of methicillin resistance.

[2] = tested on: Staphylococcus aureus Novb. Res (Novobiocin resistant); experiment: MIC by agar-dilution, Staphylococcus aureus Novb. Res; format: cell-based; conditions: inoculum 10^4 CFU/spot, 37° C., 24 hours
Procedure: as §1, §2

[3] = tested on: Staphylococcus aureus MRQR (methicillin resistant quinolone resistant); experiment: MIC by agar-dilution, Staphylococcus aureus MRQR; format: cell-based; conditions: inoculum 10^4 CFU/spot, 37° C., 24 hours
Procedure: as §1, §2

[4] = tested on: Coagulase Negative Staphylococci MS (methicillin sensitive); experiment: MIC by agar-dilution, Coagulase Negative Staphylococci MS; format: cell-based; conditions: inoculum 10^4 CFU/spot, 37° C., 24 hours
Procedure: as §1, §2

[5] = tested on: Coagulase Negative Staphylococci MR (methicillin resistant); experiment: MIC by agar-dilution, Coagulase Negative Staphylococci MR; format: cell-based; conditions: inoculum 10^4 CFU/spot, 37° C., 24 hours
Procedure: as §1, §2

[6] = tested on: Streptococcus pyogenes C203; experiment: MIC by agar-dilution, Streptococcus pyogenes C203; format: cell-based; conditions: agar with 5% defibrinated horse blood, 10^4 CFU/spot, 37° C., 5% carbon dioxide, 48 hours
Procedure: as §1, with “μg/ml. Streptococci and enterococci were tested on agar supplemented with 5% defibrinated horse blood, an inoculum of 10^4 CFU/spot and an incubation temperature of 37° C. in an atmosphere of 5% carbon dioxide for 48 hours—blood is required for the growth of some of the test organisms.” for “μg/ml.”

Enterococcus faecalis = experiment: MIC by agar-dilution, Enterococcus faecalis; format: cell-based; conditions: agar with 5% defibrinated horse blood, 10^4 CFU/spot, 37° C., 5% carbon dioxide, 48 hours
Procedure: as §1, with “μg/ml. Streptococci and enterococci were tested on agar supplemented with 5% defibrinated horse blood, an inoculum of 10^4 CFU/spot and an incubation temperature of 37° C. in an atmosphere of 5% carbon dioxide for 48 hours—blood is required for the growth of some of the test organisms.” for “μg/ml.”

Bacillus subtilis = experiment: MIC by agar-dilution, Bacillus subtilis; format: cell-based; conditions: inoculum 10^4 CFU/spot
Procedure: as §1

SMILES	MIC ([1]; read-out: MIC) [µg/mL]	MIC ([2]; read-out: MIC) [µg/mL]	MIC ([3]; read-out: MIC) [µg/mL]	MIC ([4]; read-out: MIC) [µg/mL]	MIC ([5]; read-out: MIC) [µg/mL]	MIC ([6]; read-out: MIC) [µg/mL]	MIC (Enterococcus faecalis; read-out: MIC) [µg/mL]	MIC (Bacillus subtilis; read-out: MIC) [µg/mL]	melting point	also measured
O=C(C(O)CO)N1CC=C(c2c(F)cc(N3C[C@H](COc4ccon4)OC3=O)cc2F)CC1 (mixture of isomers) [Example 4, 5(R)-Isoxazol-3-yloxymethyl-3-(4-(1-(2(R,S),3-dihydroxypropanoyl)-1,2,5,6-tetrahydropyrid-4-yl)-3,5-difluorophenyl)-oxazolidin-2-one]	0.25	0.5	0.5	0.13	0.5	0.5	1	0.25		
O=C1O[C@@H](COc2cnsn2)CN1c1ccc(C2=CCOCC2)c(F)c1 [Example 10, 5(R)-(1,2,5-Thiadiazol-3-yloxymethyl)-3-(3-fluoro-4-(3,6-dihydro-(2H)-pyran-4-yl)phenyl)oxazolidin-2-one]									46 to 48 °C	
O=C([C@@H](O)CO)N1CC=C(c2ccc(N3C[C@H](COc4ccon4)OC3=O)cc2F)CC1 [Example 12, 5(R)-Isoxazol-3-yloxymethyl-3-(4-(1-(2(S),3-dihydroxypropanoyl)-1,2,5,6-tetrahydropyrid-4-yl)-3-fluorophenyl)oxazolidin-2-one]	0.25 (≈ 0.559 µM)	0.5 (≈ 1.12 µM)	0.5 (≈ 1.12 µM)	0.13 (≈ 0.291 µM)	0.5 (≈ 1.12 µM)	0.5 (≈ 1.12 µM)	1 (≈ 2.24 µM)	0.25 (≈ 0.559 µM)		
O=C([C@@H](O)CO)N1CC=C(c2c(F)cc(N3C[C@H](COc4ccon4)OC3=O)cc2F)CC1 [Example 18, 5(R)-Isoxazol-3-yloxymethyl-3-(4-(1-(2(S),3-dihydroxypropanoyl)-1,2,5,6-tetrahydropyrid-4-yl)-3,5-difluorophenyl)oxazolidin-2-one]	0.25 (≈ 0.537 µM)	0.25 (≈ 0.537 µM)	0.5 (≈ 1.07 µM)	0.13 (≈ 0.279 µM)	0.5 (≈ 1.07 µM)	0.25 (≈ 0.537 µM)	0.5 (≈ 1.07 µM)	0.25 (≈ 0.537 µM)		
O=C([C@H](O)CO)N1CC=C(c2ccc(N3C[C@H](COc4ccon4)OC3=O)cc2)CC1 [Example 40, 5(R)-Isoxazol-3-yloxymethyl-3-(4-(1-(2(R),3-dihydroxypropanoyl)-1,2,5,6-tetrahydropyrid-4-yl)phenyl)oxazolidin-2-one]									138 to 144 °C	
O=C([C@@H](O)CO)N1CC=C(c2ccc(N3C[C@H](COc4ccon4)OC3=O)cc2)CC1 [Example 41, 5(R)-Isoxazol-3-yloxymethyl-3-(4-(1-(2(S),3-dihydroxypropanoyl)-1,2,5,6-tetrahydropyrid-4-yl)phenyl)oxazolidin-2-one]									200 to 202 °C (dec.)	
O=C1O[C@@H](COc2cnsn2)CN1c1ccc(C2=CCOCC2)c(F)c1 [Example 142, 5(R)-1,2,5-Thiadiazol-3-yloxymethyl-3-(4-[3,6-dihydro-(2H)-pyran-4-yl]-3-fluorophenyl)oxazolidin-2-one]									146 to 148 °C	
O=C(CO)N1CC=C(c2ccc(N3C[C@H](COc4cnsn4)OC3=O)cc2F)CC1 [Example 151, 5(R)-1,2,5-Thiadiazol-3-yloxymethyl-3-(4-(1-hydroxyacetyl-1,2,5,6-tetrahydropyrid-4-yl)-3-fluorophenyl)oxazolidin-2-one]										MIC [1]: 0.13 µg/mL (≈ 0.299 µM); MIC [2]: 0.25 µg/mL (≈ 0.575 µM); MIC [3]: 0.25 µg/mL (≈ 0.575 µM); MIC [4]: 0.13 µg/mL (≈ 0.299 µM); MIC [5]: 0.25 µg/mL (≈ 0.575 µM); MIC [6]: 0.25 µg/mL (≈ 0.575 µM); MIC (Enterococcus faecalis): 0.25 µg/mL (≈ 0.575 µM); MIC (Bacillus subtilis): 0.13 µg/mL (≈ 0.299 µM)
O=C1O[C@@H](COc2cnsn2)CN1c1ccc(N2C[C@@H]3C[C@H]2CN3Cc2ccccc2)c(F)c1 [Example 154, 5(R)-1 ,2,5-Thiadiazol-3-yloxymethyl-3-(4-((1 S)(4S)-2-benzyl-2,5-diazabicyclo{2.2.1}heptan-5-yl)-3-fluorophenyl)oxazolidin-2-one]									97 to 98 °C	
CS(=O)(=O)c1ccc(N2C[C@H](COc3ccon3)OC2=O)cc1 [Example 163, 3-(4-Methylsulfonylphenyl)-5(R)-(isoxazol-3-yloxymethyl)oxazolidin-2-one]									180 °C	
